Results on one compound are retold here after article PMC7614683, “A small molecule PI3Kα activator for cardioprotection and neuroregeneration” (Nature, 2023).

The subject of this test is HeLa cells. The experiment in a line: TIRF microscopy of PIP3 and PI(3,4)P2 reporters, HeLa. Type of test: cell-based, human. Here is the method: Phosphoinositide reporters used were GFP-PH-ARNO^I303Ex2 (PIP3 reporter[41]) and mCherry-cPH-TAPP1x3 (PI(3,4)P2 reporter[41]). TIRF microscopy allows selective imaging of the small cell volume, including the plasma membrane, directly adjacent to the coverslip onto which cells have been seeded. HeLa or A549 cells were seeded in Matrigel-coated (Corning #354230; diluted in Opti-MEM at 1:50) 8-well chamber slides (glass bottom, 1.55 refractive index; Thermo Fisher Scientific #155409) at a density of 5,000 cells/well. […]
Image analyses of total reporter intensities were performed with the Fiji open source image analysis package. The region of interest (ROI) corresponding to the footprint of the individual cell across time points were defined using minimal intensity projection to select only pixels present across all time points, following prior subtraction of camera noise (rolling ball method, radius = 500 pixels) and xy drift correction, intensity levels over time were measured. […] All other quantifications were performed using the open source software R/RStudio. The values plotted in Fig. 3d (iii) represent mean±SEM, following signal scaling to minimum and maximum values of the normalised fluorescence intensity for each time point (Fn(t)). […]

As to `CCN1CCN(c2ccc(Nc3cc(Nc4cccc5c4N(C(C)=O)CC5)ccn3)cc2)CC1` [Compound 1938], the “membrane-associated PI(3,4)P2 (biosensor)” value was “generation of membrane-associated PI(3,4)P2”; the “plasma membrane PIP3 (biosensor)” value was “acute and BYL719-sensitive burst of PIP3”.
